These results are taken from publication PMC7828447, “Design, Synthesis and Biological Evaluation of Arylpyridin-2-yl Guanidine Derivatives and Cyclic Mimetics as Novel MSK1 Inhibitors. An Application in an Asthma Model” (Molecules, 2021).

Structures can show the parent of a compound that is named as a salt. Where two headings read alike, the source gives them in different places.

The test system of series [1] is human pulmonary fibroblasts. The series is described as follows: WST-1 cytotoxicity test (cell viability). The note with it: WST-1, concentrations up to 30 µM. In general terms: Formazan colour is commonly taken as a measure of viable cells.
Protocol: (§1) A WST1 (Roche) reagent assay was used to determine the cytotoxicity of compounds at 24 h of incubation. […] The absorbance was measured at 450 nm.
The nature of series [2]: WST-1 cytotoxicity test (cell viability). The note with it: human, human pulmonary (lung) fibroblasts.
Protocol: as §1
Series [3] has as its system IL-6 production. In words: Inhibition of IL-6 production (ELISA) in IL-1β-stimulated primary human lung fibroblasts. The note with it: for inhibition at 10 µM: read-out: Il-6 % Inhibition 10 µM; for inhibition at 30 µM: read-out: Il-6 % Inhibition 30 µM; for IC50: 0.3-30 µM, n = 4.
Protocol: Primary human lung fibroblasts were cultured in DMEM/F-12 medium (Gibco Waltham, MA, USA) complemented with 10% fetal bovine serum (Gibco), penicillin (50 U/mL, Gibco), streptomycin (50 µg/mL, Gibco), L-glutamine (2 mM, Gibco), non-essential amino acids (0.1 mM, Gibco) and insulin (0.12 U/mL, Lilly, Indianapolis, IN, USA) Cells were used at passage 7.
In series [4] the target is T1, human synthetic MSK1 (14-438-K, Millipore) (Homo sapiens, UniProt O75582).
T1 construct: purchased Millipore 14-438-K
In words: MSK1 enzymatic inhibition assay (Kinase-Glo luminescence). The class given is biochemical. The note with it: for inhibition at 1 µM: compound at 1 µM, read-out: MSK1 % Inhibition 1 µM; for inhibition at 1 µM / inhibition at 10 µM / IC50: ± Standard Deviation (n = 4); for inhibition at 10 µM: compound at 10 µM, read-out: MSK1 % Inhibition 10 µM; for IC50: 8 concentrations 0.03-100 µM, read-out: MSK1 IC50; for MSK1 inhibitory activity (in words): tested at 1 and 10 µM. The protocol: All results are summarized in Table 1, Table 2, Table 3, Table 4 and Table 5 and on Figure 4. […]
An orthogonal luminescence-based assay Kinase-Glo® (Promega, Madison, WI, USA) was used to validate the hits, quantifying the amount of the remaining ATP in the solution following the kinase reaction. Enzymatic reactions were performed up to 4h at room temperature in presence of 3 µM ATP. All compounds were tested in quadruplicates at 1 µM and 10 µM. […] Luminescence was measured with EnVision Plate Reader (Perkin Elmer).

Where [5] appears, read: Homo sapiens, Fibroblast, read-out: Il-6 IC50 (µM), IL-1β stimulation.

T1 sequence (O75582 whole entry): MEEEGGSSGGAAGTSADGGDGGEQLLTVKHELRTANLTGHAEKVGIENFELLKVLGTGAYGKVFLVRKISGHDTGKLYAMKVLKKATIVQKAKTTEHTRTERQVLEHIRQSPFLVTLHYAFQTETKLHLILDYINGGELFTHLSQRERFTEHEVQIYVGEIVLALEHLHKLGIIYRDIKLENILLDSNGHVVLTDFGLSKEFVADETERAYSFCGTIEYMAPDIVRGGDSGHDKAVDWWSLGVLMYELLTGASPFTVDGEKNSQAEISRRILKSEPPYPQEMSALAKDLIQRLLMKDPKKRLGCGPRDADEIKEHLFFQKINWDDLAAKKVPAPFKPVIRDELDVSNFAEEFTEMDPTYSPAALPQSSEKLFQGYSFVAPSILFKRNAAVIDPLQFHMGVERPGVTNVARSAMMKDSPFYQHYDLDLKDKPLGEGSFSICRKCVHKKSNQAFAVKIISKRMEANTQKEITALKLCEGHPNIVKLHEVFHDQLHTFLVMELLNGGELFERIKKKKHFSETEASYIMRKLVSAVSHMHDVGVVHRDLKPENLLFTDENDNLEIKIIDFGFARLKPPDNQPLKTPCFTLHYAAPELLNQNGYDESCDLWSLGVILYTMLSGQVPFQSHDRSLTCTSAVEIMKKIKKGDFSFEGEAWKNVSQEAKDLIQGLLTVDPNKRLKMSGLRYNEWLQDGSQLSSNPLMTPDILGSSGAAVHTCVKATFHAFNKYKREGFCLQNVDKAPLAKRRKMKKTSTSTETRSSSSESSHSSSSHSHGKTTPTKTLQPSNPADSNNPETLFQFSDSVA

Consider `N=C(N)Nc1cccc(-c2ccccc2)n1` [Compound 1a, 1-(6-phenylpyridin-2-yl)guanidine], for which the “cytotoxicity (in words)” value in series [1] is recorded as “non-toxic”. Further, in series [2], the viability – broadly, a read-out of living cells in per cent, often relative to untreated cells – at 24 h, 10 µM is 122 ± 14% and the viability at 24 h, 30 µM is 103 ± 5%. In series [3] (Homo sapiens, Fibroblast), the inhibition – broadly, the change of the read-out against control, counted positive when it falls – at 10 µM came out at 17 ± 7% and the inhibition at 30 µM was found to be 60 ± 4%. Further, the IC50 (in general, the concentration needed to halve the response being measured) in series [3] (setting [5]) was determined as 16.3 ± 6.1 µM. In series [4], the inhibition at 1 µM was determined as 4 ± 4%, the inhibition at 10 µM was 42 ± 9% and the IC50 was found to be 17.9 ± 3.9 µM.
For the compound `N=C(N)Nc1cccc(-c2ccoc2)n1.O=C(O)C(F)(F)F` [Compound 1g, 1-[6-(Furan-3-yl)pyridin-2-yl] guanidinium trifluoroacetate], the melting point – broadly, the temperature of the solid-liquid transition – lay in the range of 219 to 221 °C. In addition, in series [4], the inhibition at 10 µM came out at 33 ± 8% and the IC50 was > 30 µM.
In turn, `N=C(N)Nc1cccc(-c2cc3ccccc3o2)n1.O=C(O)C(F)(F)F` [Compound 1h, 1-[6-(1-Benzofuran-2-yl)pyridin-2-yl] guanidinium trifluoroacetate] had a melting point of 269 to 270 °C. In series [4], the inhibition at 10 µM is 1 ± 6% and the “MSK1 inhibitory activity (in words)” value is “totally inactive”.
The compound `N=C(N)Nc1cccc(-c2ccccc2C(F)(F)F)n1.O=C(O)C(F)(F)F` [Compound 1m, 1-[6-(2-Trifluoromethylphenyl)pyridin-2-yl] guanidinium trifluoroacetate] displayed a melting point of 157 to 158 °C. Moreover, in series [4], the inhibition at 1 µM was 4 ± 2%, the inhibition at 10 µM turned out to be 38 ± 9% and the IC50 worked out at 8.1 ± 1.2 µM.
In turn, `N=C(N)Nc1cccc(-c2cccc(Cl)c2Cl)n1.O=C(O)C(F)(F)F` [Compound 1o, 1-[6-(2,3-Dichlorophenyl)pyridin-2-yl] guanidinium trifluoroacetate] had a melting point of 190 to 191 °C. Further, in series [4], the inhibition at 1 µM came to 7 ± 3%, the inhibition at 10 µM was 71 ± 13% and the IC50 worked out at 2.3 ± 0.3 µM.
For `N=C(N)Nc1cccc(-c2cc(Cl)ccc2Cl)n1` [Compound 1q, 1-[6-(2,5-Dichlorophenyl)pyridin-2-yl] guanidiniumtrifluoroacetate], the “cytotoxicity (in words)” value in series [1] is reported as “cytotoxic”. Moreover, in series [2], the viability at 24 h, 10 µM worked out at 31 ± 19% and the viability at 24 h, 30 µM amounted to 13 ± 1%. Moreover, in series [4], the inhibition at 1 µM worked out at 23 ± 6%, the inhibition at 10 µM came to 84 ± 4% and the IC50 was 0.9 ± 0.1 µM.
As to `NC1=Nc2cccc(-c3ccccc3)c2CN1` [Compound 37a], in series [2], the viability at 24 h, 10 µM came to 122 ± 14% and the viability at 24 h, 30 µM is 103 ± 5%. For the same compound, in series [3] (Homo sapiens, Fibroblast), the inhibition at 10 µM worked out at 18 ± 7% and the inhibition at 30 µM was found to be 23 ± 6%. For the same compound, the IC50 in series [3] (setting [5]) was > 30 µM. Besides, the IC50 in series [3] (read-out: Il-6 IC50, IL-1β stimulation) was > 30 µM. Besides, in series [4], the inhibition at 1 µM was -19 ± 1%, the inhibition at 10 µM stood at 44 ± 1% and the 50% inhibitory concentration (IC50) worked out at 15.8 ± 3.2 µM.
Consider `Br.NC1=Nc2cccc(-c3ccc(Cl)cc3)c2CN1` [Compound 37b, 5-(4-Chlorophenyl)-3,4-dihydroquinazolin-2-amine Hydrobromide], for which the melting point lay within 196 to 197 °C. Also, in series [4], the inhibition at 1 µM was -9 ± 2% and the inhibition at 10 µM amounted to 0%.
For the compound `Br.NC1=Nc2cccc(-c3cccc(Cl)c3)c2CN1` [Compound 37d, 5-(3-Chlorophenyl)-3,4-dihydroquinazolin-2-amine Hydrobromide], the melting point was in the range of 228 to 230 °C. For the same compound, in series [4], the inhibition at 1 µM is -5 ± 4% and the inhibition at 10 µM amounted to 10 ± 7%.
The like results for `Br.COc1cccc(-c2cccc3c2CNC(N)=N3)c1` [Compound 37e, 5-(3-Methoxyphenyl)-3,4-dihydroquinazolin-2-amine Hydrobromide] were, in that order, 198 to 199 °C, -6 ± 4% and 3 ± 7%.
The like results for `Br.COc1ccccc1-c1cccc2c1CNC(N)=N2` [Compound 37g, 5-(2-Methoxyphenyl)-3,4-dihydroquinazolin-2-amine Hydrobromide] were, in that order, 226 to 229 °C, -14 ± 3% and -5 ± 1%.
On to `Nc1nc2c(-c3ccccc3)cccc2[nH]1` [Compound 49a, 4-Phenyl-1H-benzo[d]imidazol-2-amine hydrobromide], for which, in series [2], the viability at 24 h, 10 µM was 93 ± 17% and the viability at 24 h, 30 µM worked out at 91 ± 15%. Also, in series [3] (Homo sapiens, Fibroblast), the inhibition at 10 µM turned out to be 12 ± 4% and the inhibition at 30 µM was determined as 22 ± 1%. The IC50 in series [3] (setting [5]) is > 30 µM. Also, in series [4], the inhibition at 1 µM is 5 ± 3%, the inhibition at 10 µM came to 46 ± 6% and the IC50 came out at 3.6 ± 0.5 µM.
As to `Br.Nc1nc2c(-c3ccc(Cl)cc3)cccc2[nH]1` [Compound 49b, 4-(4-Chlorophenyl)-1H-benzo[d]imidazol-2-amine Hydrobromide], the melting point lay in the range of 254 to 256 °C. Further, in series [4], the inhibition at 1 µM is -3 ± 6% and the inhibition at 10 µM came to 49 ± 9%.
The like results for `Br.COc1ccc(-c2cccc3[nH]c(N)nc23)cc1` [Compound 49c, 4-(4-Methoxyphenyl)-1H-benzo[d]imidazol-2-amine Hydrobromide] were, in that order, 218 to 220 °C, -2 ± 6% and 25 ± 5%.
`Br.Nc1nc2c(-c3cc(Cl)ccc3Cl)cccc2[nH]1` [Compound 49f, 4-(2,5-Dichlorophenyl)-1H-benzo[d]imidazol-2-amine Hydrobromide] came in with a melting point of 202 to 205 °C. For the same compound, in series [4], the inhibition at 1 µM worked out at 6 ± 3%, the inhibition at 10 µM amounted to 61 ± 5% and the IC50 came to 6.8 ± 0.8 µM.
`Br.COc1ccccc1-c1cccc2[nH]c(N)nc12` [Compound 49g, 4-(2-Methoxyphenyl)-1H-benzo[d]imidazol-2-amine Hydrobromide]: the melting point lay in the range of 61 to 66 °C. Besides, in series [4], the inhibition at 1 µM is -3 ± 5% and the inhibition at 10 µM was determined as 39 ± 7%.
`CCCNC1=Nc2cccc(-c3ccccc3)c2CN1` [Compound 60a] displayed a melting point of 70 to 72 °C. Moreover, in series [4], the inhibition at 1 µM came out at 0%, the inhibition at 10 µM was 2 ± 3% and the “MSK1 inhibitory activity (in words)” value is given as “inactivity”.
`c1ccc(NC2=Nc3cccc(-c4ccccc4)c3CN2)cc1` [Compound 60b] gave a melting point of 77 to 82 °C. In addition, in series [4], the inhibition at 1 µM is -2 ± 1%, the inhibition at 10 µM is 1 ± 2% and the “MSK1 inhibitory activity (in words)” value is “inactivity”.
`O=S(=O)(NCCNC/C=C/c1ccc(Br)cc1)c1cccc2cnccc12` [Compound H89, H89, reference compound]: in series [3] (Homo sapiens, Fibroblast), the inhibition at 10 µM is 38 ± 5% and the inhibition at 30 µM came out at 96 ± 1%. Besides, the IC50 in series [3] (setting [5]) stood at 10.5 ± 5.1 µM. In addition, in series [4], the inhibition at 1 µM came out at 80 ± 8%, the inhibition at 10 µM stood at 93 ± 10% and the IC50 stood at 0.25 ± 0.06 µM.
Turning to `O=S(=O)(c1cccc2cnccc12)N1CCCNCC1` [Fasudil, fasudil, reference compound], in series [3] (Homo sapiens, Fibroblast), the inhibition at 10 µM stood at 38 ± 6% and the inhibition at 30 µM worked out at 81 ± 6%. The IC50 in series [3] (setting [5]) stood at 8.5 ± 5.1 µM. In series [4], the inhibition at 1 µM came to 50 ± 10% and the inhibition at 10 µM amounted to 82 ± 10%.
